Laboratory results as given in patent US20060252683A1, “Preparation of a peptide compound (SYRAPRO-2000) and its use for the activation of protein phosphatase-2A1 enzyme” (priority 2005, published 2006).

Tested on: protein phosphatase-2C
Assay: Protein phosphatase-2C assay
Type: biochemical, pig
Settings: various concentrations
Procedure: Protein phosphatase-1 (squares), protein phosphatase-2A1 (circles), protein phosphatase-2B (triangles) and protein phosphatase-2C (stars) were assayed in the presence of various concentrations of HIV-1 Vpr^71-96. 100 percent protein phosphatase activity is equivalent to 0.005 unit. Similar results were obtained in 3 independent experiments.
^32P-labeled phosphorylase a was prepared by phosphorylation of phosphorylase b with phosphorylase kinase as described in (Cohen 1988). ^32P-labeled casein was prepared by phosphorylation of casein with protein kinase A as described in (Tung 1986). Protein phosphatase-1 was purified from rabbit skeletal muscle as described in (Cohen 1988). Protein phosphatase-1 inhibitor-2 was purified from rabbit skeletal muscle as described in (Yang 1981). Protein phosphatase-2A0 and protein phosphatase-2A1 from pig brain and from pig liver were purified as described in (Tung 1985). Protein phosphatase-2A0 and protein phosphatase-2A1 from pig adipose tissue were highly purified by successive chromatography of pig subcutaneous adipose tissue extracts on DEAE Sepharose, Poly-L-lysine Agarose, Sephacryl S-300 HR and thiophosphorylase-a-Sepharose-4B as described in (Tung 1985). Protein phosphatase-2B was purified from pig brain as described in (Tung 1986). […]

CC[C@H](C)[C@H](NC(=O)[C@H](CCCNC(=N)N)NC(=O)[C@H](CO)NC(=O)[C@H](Cc1c[nH]cn1)NC(=O)[C@H](CCCNC(=N)N)NC(=O)[C@H](CS)NC(=O)CNC(=O)[C@@H](NC(=O)[C@H](CCCNC(=N)N)NC(=O)[C@H](Cc1ccccc1)NC(=O)[C@@H](N)Cc1c[nH]cn1)[C@@H](C)CC)C(=O)NCC(=O)N[C@H](C(=O)N[C@H](C(=O)N[C@@H](CCCNC(=N)N)C(=O)N[C@@H](CCC(N)=O)C(=O)N[C@@H](CCCNC(=N)N)C(=O)N[C@@H](CCCNC(=N)N)C(=O)N[C@@H](C)C(=O)N[C@@H](CCCNC(=N)N)C(=O)N[C@@H](CC(N)=O)C(=O)NCC(=O)N[C@@H](C)C(=O)N[C@@H](CO)C(=O)N[C@@H](CCCNC(=N)N)C(=O)N[C@@H](CO)C(=O)O)[C@@H](C)O)C(C)C [SYRAPRO-2000]
effect on activity of protein phosphatase-2C: negligible effect
